This is an account of results in publication PMC9101373, “Design of DNA Intercalators Based on 4-Carboranyl-1,8-Naphthalimides: Investigation of Their DNA-Binding Ability and Anticancer Activity” (International Journal of Molecular Sciences, 2022).

Assay [1] deals with HepG2 cells. The assay is described as follows: Cell migration inhibition assay (xCELLigence, CIM plates). It is filed as cell-based, human. Conditions: 24 h pre-incubation at one-fourth of IC50. Here is the method: By using the xCELLigence platform, we evaluated migration potential of HepG2 cells after the administration of compounds. We incubated the cells with compounds 54–61 at the concentration corresponding to one-fourth of the IC50 value for 24 h before the analysis, and the cells were then seeded on a CIM plate. Impedance-based cell index (CI) of HepG2 cells was measured every 30 min for 72 h. […] The most significant changes were observed within the first 24 h (Figure 3A). Thus, to obtain more insight into the altered migration profile caused by the analyzed compounds, we additionally calculated the slope representing the rate of change of the cell index within the first 24 h.
Transwell cell migration experiments were performed using xCELLigence RTCA Analyzer (Roche) in Cell Invasion and Migration (CIM) plates (ACEA Biosciences, San Diego, CA, USA). Each well consisted of an upper and a lower chamber separated by a microporous polyethylene terephthalate (PET) membrane containing randomly distributed 8 μm-pores. Prior to the migration assay, HepG2 cells (15 × 10^3) were seeded onto 48-well plates containing the growth medium (EMEM) and incubated until 70–80% confluency and incubated at 37 °C in a humidified atmosphere containing 5% CO2. Subsequently, the cells were treated for 24 h with the tested compounds at the final concentration corresponding to the one-fourth of IC50 value. Next, 160 μL of complete growth medium (supplemented with 10% FBS) was added to the lower chamber and 50 μL of serum-free growth medium to the upper chambers of CIM plate. The plates were incubated at 37 °C and 5% CO2 saturation for 1 h prior to insertion into the xCELLigence platform. To initiate a transwell migration experiment, cells were detached, resuspended in the serum-free growth medium, and seeded in the upper chamber at a density of 1 × 10^4 cells in 100 μL per well, previously treated with the compounds. The impedance of the microelectrode array was monitored and converted to the cell index (CI). Normalization values were recorded using the RTCA Software 1.2.1. […]
Figure 3 Real-time migration potential of HepG2 cells after 24 h administration of compounds 54–61. The migration potential of the cells was monitored using the xCELLigence system. HepG2 cells were incubated with the analyzed compounds for 24 h before the analysis at the concentration corresponding to one-fourth of the IC50 value. The impedance (cell index values) was measured every 30 min for the next 72 h. To eliminate the influence of the solvent, DMSO was added to the cells in a volume that corresponded to the highest compound concentration (A). The slope parameter represents the rate of changes in CI values of HepG2 cells within the first 24 h (B). […]

Assay [2] concerns HepG2 cells. The assay can be described thus: Apoptosis/necrosis assay by flow cytometry (Annexin V). It is filed as cell-based, human. Conditions: HepG2, 24 h at total IC50, Annexin V. Here is the method: To investigate whether compounds 54–61 induced apoptosis in HepG2 cells, we incubated the cells with these compounds for 24 h and performed a flow cytometry analysis. The concentration chosen for each compound corresponded to their total IC50 values. After incubation, the cells were stained with Annexin V Alexa Fluor 647 conjugate, which enabled detection of the externalization of phosphatidylserine, one of the earliest indicators of apoptosis. To eliminate the influence of the solvent (DMSO), we also analyzed its ability to induce apoptosis in a volume that corresponded to the highest concentration. […] The other compounds, 57, 58, 59, and 61, could not induce as high apoptosis as those mentioned above. Approximately one-third of cells targeted apoptotic pathways (33.4%, 39.1%, 23.1%, and 37.1%, respectively) when treated with these compounds (Figure 6).
HepG2 cells (3.85 × 10^5) were seeded onto 6-well plates, cultured in supplemented EMEM medium (Corning®) at 37 °C and 5% CO2 saturation, and incubated until 70–80% cell confluency was achieved. Subsequently, the cells were treated for 24 h, with the tested compounds 54–61 were added at a concentration corresponding to their total IC50 values. Next, the cells were detached with trypsin (Corning®) and washed twice with DPBS (1 mL) (Thermo Fisher Scientific, Waltham, MA, USA). In the meantime, annexin-binding buffer (10 mM HEPES, 140 mM NaCl, and 2.5 mM CaCl2, pH 7.4) was prepared. The cells were resuspended in annexin-binding buffer (100 μL per assay) and stained with Alexa Fluor™ 680 annexin V conjugate (ex/em: ~679/702 nm, Thermo Fisher Scientific, Waltham, MA, USA) according to the manufacturer’s protocol (5 μL of the annexin V conjugate was added to each 100 μL of cell suspension) and incubated for 15 min at RT, in the dark. After the incubation period, annexin-binding buffer (400 μL) was added, mixed gently, and the samples were kept on ice during the analysis. The cells were analyzed immediately after staining with […] by Accuri C6 flow cytometer (Becton Dickinson, Franklin Lake, NJ, USA) with excitation at 635 nm. The rate of apoptosis was evaluated immediately by FlowJo software.
Figure 6 Effect of compounds 54 (5.5 µM), 55 (3.4 µM), 56 (12 µM), 57 (3.1 µM), 58 (3.9 µM), 59 (5.4 µM), 60 (31 µM), and 61 (4.8 µM) on cell death in HepG2 cells. The cells were incubated with the tested compounds for 24 h at the concentration corresponding to the total IC50 values. Quantitative flow cytometry analysis was performed to evaluate apoptosis/necrosis induced by compounds after 24 h of treatment. Data are presented as the mean ± SD of three independent experiments. Statistical significance is indicated with asterisks: (ns) p > 0.05, (**) p < 0.01, (***) p < 0.001, and (****) p < 0.0001.

For the substance “N-[2-(Pyrrolidin-1-yl)ethyl]-4-[(2-(2-(1,7-dicarba-closo-dodecaborane-1-yl)-ethylamino)ethyl)amino]-1,8-naphthalimide [Compound 57]”, the “effect on migration potential of HepG2 cells (cell index, slope in first 24 h)” value (from here on “effect … (cell index, slope in first 24 h)”) with HepG2 cells [1] is recorded as “influenced the migratory activity most”. The “apoptosis rate, apoptotic cells” value in the assay with HepG2 cells [2] turned out to be 33.4%.
As for “N-[2-(Dimethylamino)ethyl]-4-[(6-(2-(1,2-dicarba-closo-dodecaborane-1-yl)-ethylamino)hexyl)amino]-1,8-naphthalimide [Compound 58]”, the “apoptosis rate, apoptotic cells” value in the assay with HepG2 cells [2] is 39.1%.
With “N-[2-N-Pyrrolidinyl)ethyl]-4-[(6-(2-(1,7-dicarba-closo-dodecaborane-1-yl)-ethylamino)hexyl)amino]-1,8-naphthalimide [Compound 61]”, the “effect … (cell index, slope in first 24 h)” value in the assay on HepG2 cells [1] is “highest impairment”. Also, the “apoptosis rate, apoptotic cells” value in the assay on HepG2 cells [2] is reported as 37.1%.
With “N-[2-(Dimethylamino)ethyl]-4-[(6-(2-(1,7-dicarba-closo-dodecaborane-1-yl)-ethylamino)hexyl)amino]-1,8-naphthalimide [Compound 59]”, the “apoptosis rate, apoptotic cells” value in the assay on HepG2 cells [2] was 23.1%.
The same measure, in the same setting: then “N-[2-(Dimethylamino)ethyl]-4-[(2-(2-(1,2-dicarba-closo-dodecaborane-1-yl)-ethylamino)ethyl)amino]-1,8-naphthalimide [Compound 54]”, with 44.3%.
“N-[2-(Pyrrolidin-1-yl)ethyl]-4-[(2-(2-(1,2-dicarba-closo-dodecaborane-1-yl)-ethylamino)ethyl)amino]-1,8-naphthalimide [Compound 56]”: the “effect … (cell index, slope in first 24 h)” value with HepG2 cells [1] is “influenced the migratory activity most”. Also, the “apoptosis rate, apoptotic cells” value in the assay with HepG2 cells [2] was found to be 77.4%.
The like results for “N-[2-N-Pyrrolidinyl)ethyl]-4-[(6-(2-(1,2-dicarba-closo-dodecaborane-1-yl)-ethylamino)hexyl)amino]-1,8-naphthalimide [Compound 60]” were, in that order, “influenced the migratory activity most” and 46.9%.
On to “N-[2-(Dimethylamino)ethyl]-4-[(2-(2-(1,7-dicarba-closo-dodecaborane-1-yl)-ethylamino)ethyl)amino]-1,8-naphthalimide [Compound 55]”, for which the “apoptosis rate, apoptotic cells” value with HepG2 cells [2] is reported as 48.2%.
